In US6465478B1 (dated 2002):
Structures can show the parent of a compound that is named as a salt.

Compound	melting point [°C]
NCCCN1CN(c2ccccc2)C2(CCN(C3(c4ccccc4)CCCCCC3)CC2)C1=O (as salt: HCl)	150 to 154
O=C1N(CCN2CCCCC2)CN(c2ccccc2)C12CCN(C1(c3ccccc3)CCCCCC1)CC2 (as salt: HCl)	174 to 178
CC1(N2CCC3(CC2)C(=O)N(CCN2CCCCC2)CN3c2ccccc2)CCCCCC1 (as salt: HCl)	50 to 53
CC1(N2CCC3(CC2)C(=O)N(CCCN)CN3c2ccccc2)CCCCCC1 (as salt: HCl)	216 to 220
CC1(N2CCC3(CC2)C(=O)NCN3c2ccccc2)CCC=CCC1 (as salt: hydrochloride)	251 to 254
